Data reported in patent publication US20050037402A1, “Device and process for direct quantitative in vitro determination of a substance that is contained in a sample” (priority 2003, published 2005).

Columns and labels:
[1] = bound by 12-mer peptides; cited from earlier work
[2] = in DMSO; cited from earlier work
[3] = Photophysical characterization of dye-antibody complexes (spectral shifts, fluorescence quantum yields); assay type: physicochemical; settings: for Absorption Maximum (nm) / Fluorescence Maximum (nm) / Fluorescence Quantum Yield (%): 1 μmol/l dye, 2.4 μmol/l antibody in PBS; for Absorption Maximum (nm) / Fluorescence Maximum (nm): 2 hours at room temperature; for Fluorescence Quantum Yield (%): relative to indocyanine green
Procedure: Dye-antibody complexes based on antibodies with binding to the indotricarbocyanine dye trisodium-3,3-dimethyl-2-{4-methyl-7-[3,3-dimethyl-5-sulfonato-1-(2-sulfonatoethyl)-3H-indolium-2-yl]hepta-2,4,6-trien-1-ylidene}-1-(2-sulfonatoethyl)-2,3-dihydro-1H-indole-5-sulfonate, inner salt, were examined (see Example 1). Solutions of the concentration of 1 μmol/l of the above-mentioned dye and 2.4 μmol/l of the respective antibody in PBS were produced and incubated for 2 hours at room temperature. The absorption maxima were determined with a spectral photometer (Perkin-Elmer, Lambda2). The fluorescence maxima and fluorescence quantum yields were determined with a SPEX fluorolog (wavelength-dependent sensitivity calibrated by lamp and detector) relative to indocyanine green (Q=0.13 in DMSO, J Chem Eng Data 1977, 22, 379, Bioconjugate Chem 2001, 12, 44). From the absorption and fluorescence maxima, the spectral shifts were calculated relative to the maxima of a solution of the above-mentioned dye without antibodies in PBS (1 μmol/l) (absorption max. 754 nm, fluorescence max. 783 nm, fluorescence quantum yield 10%).

[4] = Inhibition-ELISA for binding of the unconjugated dye by selected HuCAL GOLD Fab fragments
Procedure: The purified and concentrated phagemids of the HuCAL GOLD antibody library were used in a standard selection process. As antigens, BSA- or transferrin-coupled ZK203468 were used alternately. The antigens were taken up in PBS and applied at concentrations of 50 μg/ml on Maxisorp™ microtiter plates F96 (Nunc). The maxisorp plates were incubated overnight at 4° C. (“coating”). After the maxisorp plates were blocked with 5% milk powder in PBS, about 2E+13 HuCAL GOLD phages were added to the antigen-loaded, blocked-off spots and incubated there overnight or for two hours at room temperature. After several washing steps, which became more stringent with progressive selection rounds, bonded phages were eluted with 20 mmol of DTT or 100 μmol of unconjugated ZK203468. Altogether, three successive selection rounds were carried out, whereby the phage amplification was carried out between the selection rounds, as described above.
Several thousand clones were isolated after the selection and sub-cloning and tested by means of ELISA in 384-well format for specific detection of the antigens ZK203468-BSA and—transferrin used in panning. Clones identified in this connection were studied in an inhibition-ELISA for efficient binding of the unconjugated dye.

[5] = dye without antibodies in PBS (1 μmol/l)
[6] = relative to the dye without antibodies in PBS (1 μmol/l)

Texas Red
red shift of the absorption [1]: 2.8 nm | red shift of the fluorescence [1]: 1.4 nm

CC1(C)C(/C=C/C=C/C=C/C=C2\N(CCCCS(=O)(=O)O)c3ccc4ccccc4c3C2(C)C)=[N+](CCCCS(=O)(=O)[O-])c2ccc3ccccc3c21 [indocyanine green]
fluorescence quantum yield Q [2]: 0.13

CC(C=CC=C1N(CCS(=O)(=O)[O-])c2ccc(S(=O)(=O)[O-])cc2C1(C)C)=CC=CC1=[N+](CCS(=O)(=O)[O-])c2ccc(S(=O)(=O)[O-])cc2C1(C)C.[Na+].[Na+].[Na+] [ZK203468, Trisodium-3,3-dimethyl-2-{4-methyl-7-[3,3-dimethyl-5-sulfonato-1-(2-sulfonatoethyl)-3H-indolium-2-yl]hepta-2,4,6-trien-1-ylidene}-1-(2-sulfonatoethyl)-2,3-dihydro-1H-indole-5-sulfonate, Inner Salt]
Absorption Maximum (nm) [3]: 754 nm | Fluorescence Maximum (nm) [3]: 783 nm | absorption max. [3, 5]: 754 nm | fluorescence max. [3, 5]: 783 nm | fluorescence quantum yield [3, 5]: 10% | Fluorescence Quantum Yield (%) [3]: 10.0%

B1: MOR02965: HuCAL GOLD Fab fragment binding dye ZK203468; protein SEQ-ID NO: 5 (VH-CH) and 6 (VL-CL) (antibody)
heavy: QVQLQQSGPGLVKPSQTLSLTCAISGDSVSSNSAAWSWIRQSPGRGLEWLGRIYYRSKWYNDYAVSVKSRITINPDTSKNQFSLQLNSVTPEDTAVYYCARTSFYQKLFFIAFDHWGQGTLVTVSSASTKGPSVFPLAPSSKSTSGGTAALGCLVKDYFPEPVTVSWNSGALTSGVHTFPAVLQSSGLYSLSSVVTVPSSSLGTQTYICNVNHKPSNTKVDKKVEPKSEFEQKLISEEDLNGAPWSHPQFEK
light: DIALTQPASVSGSPGQSITISCTGTSSDGGAYHYVSWYQQHPGKAPKLMIYGVIYRPSGVSNRFSGSKSGNTASLTISGLQAEDEADYYCAAWDFRKRLNVFGGGTKLTVLGQPKAAPSVTLFPPSSEELQANKATLVCLISDFYPGAVTVAWKADSSPVKAGVETTTPSKQSNNKYAASSYLSLTPEQWKSHRSYSCQVTHEGSTVEKTVAPTEA
modifications: Fab fragment of variable heavy chain; Fab fragment of variable light chain
Absorption Maximum (nm) [3]: 799 nm | Fluorescence Maximum (nm) [3]: 815 nm | Fluorescence Quantum Yield (%) [3]: 13.0% | Absorption Shift (nm) [3, 6]: 45 nm | Fluorescence Shift (nm) [3, 6]: 32 nm | binding to the non-conjugated dye ZK203468 [4]: bind efficiently
